Drawing on ChEMBL document CHEMBL1221331, “Discovery of biphenylketones as dual modulators of inflammation and bone loss” (Bioorg Med Chem Lett, 2010), this text covers IC50, inhibition and Activity for 39 compounds.

The test system of one assay is J774. The experiment in a line: Cytotoxicity against mouse J774 cells expressing RANKL signaling by Alamar blue assay. Format: functional, cell-based.
A short description of assay [1]: Inhibition of NFkappa signaling in mouse macrophages assessed as reduction in TNF-alpha-induced IkapppaB phosphorylation at 10 uM pretreated for 1 hr before TNFalpha challenge by Western blotting.
Assay [2] addresses T1, Tumor necrosis factor ligand superfamily member 11 (Mus musculus) (UniProt O35235).
T1 sequence (whole entry): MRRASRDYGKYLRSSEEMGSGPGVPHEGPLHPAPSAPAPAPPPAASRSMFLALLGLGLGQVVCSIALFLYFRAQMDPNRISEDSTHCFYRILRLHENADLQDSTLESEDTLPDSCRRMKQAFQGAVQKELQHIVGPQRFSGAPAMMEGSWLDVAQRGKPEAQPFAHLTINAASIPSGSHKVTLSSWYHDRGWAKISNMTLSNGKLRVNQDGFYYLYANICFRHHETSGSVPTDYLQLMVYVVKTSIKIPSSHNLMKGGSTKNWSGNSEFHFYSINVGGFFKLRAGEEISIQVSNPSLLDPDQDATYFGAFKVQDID
The experiment in a line: Inhibition of NFkappa signaling in mouse macrophages assessed as reduction in RANKL-induced IkapppaB phosphorylation at 50 uM pretreated for 1 hr before RANKL challenge by Western blotting.

Assay [3] in a line: Inhibition of NFkappa signaling in mouse macrophages assessed as reduction in TNF-alpha-induced IkapppaB phosphorylation at 50 uM pretreated for 1 hr before TNFalpha challenge by Western blotting.
Assay [4] concerns Mus musculus. The experiment in a line: Antiarthritic activity in mouse assessed as inhibition of collagen-induced arthritis at 10 mg/kg/day, po administered 15 days post collagen challenge. In kind it is functional, organism-based.
Assay [5] deals with Mus musculus. The experiment in a line: Anti-resorptive activity against ovariectomy-induced bone loss in mouse assessed as increase in trabecular bone mineral density at 20 mg/kg/day, po relative to untreated control. In kind it is functional, Trabecula.
Assay [6] in a line: Cytotoxicity against mouse osteoclast cells expressing RANKL signaling by Alamar blue assay. Format: functional, cell-based.
The nature of assay [7]: Cytotoxicity against mouse osteoblast cells by alamar blue assay. In kind it is cell-based.
Assay [8] deals with Mus musculus. The experiment in a line: Effect on ovariectomy-induced bone loss in mouse assessed as reduction in trabecular bone mineral density at 20 mg/kg/day, po (reference value: bone mineral density loss = 34%). Format: functional, Trabecula. Also noted: scale not given: the % may be the effect or the level left.
For assay [9], the target named is T1, Tumor necrosis factor ligand superfamily member 11 (Mus musculus). The experiment in a line: Inhibition of NFkappa signaling in mouse macrophages assessed as reduction in RANKL-induced IkapppaB phosphorylation at 10 uM pretreated for 1 hr before RANKL challenge by Western blotting.
The subject of assay [10] is Mus musculus. In words: Antiarthritic activity in mouse assessed as inhibition of collagen-induced arthritis at 10 mg/kg/day, ip administered 15 days post collagen challenge. In kind it is functional, organism-based.

Calls of active or inactive are those of the source. The calls are words filed in the database; no cut-off is given here.

For the compound `OCCCCCC(O)c1ccc(-c2ccc(C(F)(F)F)cc2)cc1` (stereo not given), the midpoint of inhibition with J774, the IC50, lay at 13 µM. Turning to `OCCCCCCc1ccc(-c2ccccc2)cc1`, the inhibition entry in assay [1], in assay [2] and in [3] was “inactive” in each case. Take `Cc1cc(S(=O)(=O)NCCCCO)ccc1-c1ccc(F)cc1F`: the inhibition result in the assay with Mus musculus [4] was “Active”. Regarding `O=C(CCCCCO)c1ccc(-c2ccc(F)cc2F)cc1Cl`, the values for the IC50 (in the assay on J774; in assay [6]; in assay [7]) were 7 µM, 3 µM and over 100 µM, respectively. Moreover, the Activity with Mus musculus [5] is -3%. As for `O=C(CCCCCO)c1ccc(-c2ccc(F)cc2F)cc1`, the IC50 in the assay on J774 was 6 µM; in assay [6] it was 2 µM; in assay [7], over 100 µM. Further, the Activity in the assay on Mus musculus [8] was 10%.

Compound `OCCCCCC(O)c1ccc(-c2ccc(F)cc2)cc1` (stereo not given) displayed an IC50 in the assay on J774 of 18 µM.

With `OCCCCCC(O)c1ccc(-c2ccccc2)cc1` (stereo not given), the IC50 in the assay on J774 was 22 µM; in [6], 8 µM; in assay [7], over 100 µM. In the case of `OCCCCCC(O)c1ccc(-c2ccc(Cl)cc2)cc1` (stereo not given), the IC50 in the assay on J774 turned out to be 17 µM. Same read-out and setting: as for `COc1cc(F)ccc1-c1ccc(C(O)CCCCCO)cc1` (stereo not given), the figure is 70 µM; as for `Cc1cc(F)ccc1-c1ccc(C(=O)CCCCCO)cc1`, 20 µM.

In the case of `Cc1ccc(-c2ccc(C(O)CCCCCO)cc2)cc1` (stereo not given), inhibition with J774 was half-maximal at 22 µM (IC50).

`OCCCCCC(O)c1ccc(-c2ccc(OC(F)(F)F)cc2)cc1` (stereo not given): the IC50 in the assay with J774 came out at 14 µM.

In the assay with J774, `OCCCCCC(O)c1ccc(-c2ccc(Br)cc2)cc1` (stereo not given) yielded an IC50 of 20 µM. As for `O=C(CCCCCO)c1ccc(-c2ccccc2)cc1`, the IC50 in the assay on J774 was 22 µM; in assay [6], 9 µM; in assay [7] it was over 100 µM. Besides, in the assay with Mus musculus [8], the Activity is 21%. Consider `OCCCCCC(O)c1ccc(-c2ccc(F)cc2)cc1Cl` (stereo not given), for which the midpoint of inhibition in the assay with J774, the IC50, lay at 8 µM. The same measure, in the same setting: as for `OCCCCCC(O)c1ccc(-c2ccc(F)cc2)cc1F` (stereo not given), the figure is 14 µM.

`O=C(CCCCCO)c1ccc(-c2ccc(Cl)cc2Cl)cc1`: the IC50 was 8 µM in the assay with J774, 0.8 µM in assay [6] and over 100 µM in [7]. The inhibition entry (in assay [1]; in the assay on Mus musculus [4]; in [9]; in the assay with Mus musculus [10]) was “Active” each time. In addition, the Activity in the assay with Mus musculus [5] is 6%; in the assay on Mus musculus [8], -6%.

In turn, `OCCCCCC(O)c1ccc(-c2ccc(O)cc2)cc1` (stereo not given) registered an IC50 with J774 of 15 µM.

The compound `O=C(CCCCCO)c1ccc(-c2ccc(C(F)(F)F)cc2C(F)(F)F)cc1` displayed an IC50 with J774 of 23 µM. In the assay with J774, `OCCCCCC(O)c1ccc(-c2ccccc2)c(F)c1` (stereo not given) registered an IC50 of 17 µM.

Consider `COc1ccc(-c2ccc(C(=O)CCCCCO)cc2)cc1OC`, for which the results for the IC50 (in the assay with J774; in [6]) were 60 µM and 14 µM, respectively. The compound `OCCCCCC(O)c1ccc(-c2cccc(Cl)c2)cc1` (stereo not given) gave an IC50 with J774 of over 100 µM. The same measure, in the same setting: as for `O=C(CCCCCO)c1ccc(-c2ccc(F)c(F)c2)cc1`, the figure is 20 µM; as for `OCCCCCC(O)c1ccc(-c2ccc(Cl)cc2Cl)cc1` (stereo not given), 8 µM. `Cc1cccc(-c2ccc(C(=O)CCCCCO)cc2)c1` had an IC50 in the assay on J774 of 100 µM. In addition, the inhibition entry in assay [2] and in assay [3] was “inactive” each time. For `Cc1cc(F)ccc1-c1ccc(C(O)CCCCCO)cc1` (stereo not given), 20 µM corresponded to half-maximal inhibition in the assay on J774 (IC50). The compound `Cc1ccccc1-c1ccc(C(O)CCCCCO)cc1` (stereo not given) had an IC50 with J774 of 24 µM. In the case of `Cc1cccc(-c2ccc(C(O)CCCCCO)cc2)c1` (stereo not given), the IC50 with J774 is over 100 µM. In the case of `Cc1cc(C(O)CCCCCO)ccc1-c1ccc(F)cc1F` (stereo not given), the IC50 in the assay with J774 is 8 µM; in [6], 1.3 µM; in assay [7], over 100 µM. Consider `OCCCCCC(O)c1ccc(-c2ccc(F)cc2F)cc1` (stereo not given), for which inhibition in the assay with J774 was half-maximal at 8 µM (IC50). Take `OCCCCCC(O)c1ccc(-c2ccccc2F)cc1` (stereo not given): in the assay with J774, the IC50 came out at 22 µM. `Cc1cc(C(=O)CCCCCO)ccc1-c1ccc(F)cc1F`: the IC50 in the assay on J774 is 8 µM; in assay [6], 1.5 µM. Further, the inhibition entry (in [1]; in the assay on Mus musculus [4]; in assay [9]) was “Active” each time. For the compound `CCOc1ccc(-c2ccc(C(O)CCCCCO)cc2)cc1` (stereo not given), it took 14 µM to reach half-maximal inhibition in the assay with J774 (IC50).

On to `OCCCCCC(O)c1ccc(-c2ccccc2O)cc1` (stereo not given), for which it took 40 µM to reach half-maximal inhibition in the assay with J774 (IC50).

`O=C(CCCCCO)c1ccc(-c2ccc(F)cc2Cl)cc1` showed an IC50 in the assay on J774 of 15 µM.

`CSc1ccc(-c2ccc(C(O)CCCCCO)cc2)cc1` (stereo not given): the IC50 with J774 was found to be 24 µM.

In the case of `CN(C)c1ccc(-c2ccc(C(O)CCCCCO)cc2)cc1` (stereo not given), the IC50 with J774 came to 28 µM. On to `COc1ccc(-c2ccc(C(=O)CCCCCO)cc2)c(OC)c1`, for which the IC50 in the assay on J774 was 50 µM; in assay [6], 13 µM. With `Cc1cc(-c2ccc(F)cc2F)ccc1C(=O)CCCCCO`, the IC50 in the assay on J774 amounted to 4 µM.
